Read-outs that look alike come from different tables or passages of the source.
Key:
[1] = system: human MonoMac6 macrophages; test: TNF-α production in MonoMac6 cells (ELISA); assay type: cell-based; conditions: 24 hr, various concentrations
[2] = system: human monocyte-derived macrophages; test: TNF-α production in human monocyte-derived macrophages (ELISA); assay type: cell-based; conditions: 24 hr, various concentrations
Protocol: (§1) Cells were treated for 24 hr with DMSO control, test compound, or LPS and mouse TNF-α or IL-6 and human TNF-α enzyme-linked immunosorbent assay (ELISA) kits (BD Biosciences Pharmigen) were used to detect these cytokines in the cell supernatants. Cytokine concentration was determined by extrapolation from the TNF-α/IL-6 standard curve, according to the manufacturer's protocol.
(§2) For treatments, cells were plated in 96-well microtiter plates at 2×10^5 cells/well (J774.A1, MonoMac6) or 6×10^4 cells/well (human monocyte-derived macrophages) using their respective culture media, except FBS was reduced to 3% (v/v). After incubation overnight (5% CO2, 37° C.), the media were removed and replaced with fresh media containing test compounds.

FPRL1 = target: T1, FPRL1 (Homo sapiens, UniProt P25090); test: Ca2+ mobilization in RBL-FPRL1 cells; assay type: cell-based
T1 construct: expressed in transfected cells; host or cells: rat basophilic leukemia RBL-2H3 cells (RBL-FPRL1)
T1 sequence (P25090 1-351): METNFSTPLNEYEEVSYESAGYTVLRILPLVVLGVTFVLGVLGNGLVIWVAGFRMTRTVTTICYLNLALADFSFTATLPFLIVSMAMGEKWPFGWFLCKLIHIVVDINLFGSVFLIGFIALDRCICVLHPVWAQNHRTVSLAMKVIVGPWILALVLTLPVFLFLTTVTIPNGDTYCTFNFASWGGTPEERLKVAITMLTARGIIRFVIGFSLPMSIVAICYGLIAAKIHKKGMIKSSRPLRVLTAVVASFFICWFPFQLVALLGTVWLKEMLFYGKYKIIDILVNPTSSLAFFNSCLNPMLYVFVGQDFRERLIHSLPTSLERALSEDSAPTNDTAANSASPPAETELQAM

human neutrophils [3] = test: Chemotaxis assay, human neutrophils; assay type: cell-based; conditions: percent of response induced by 50 nM IL-8
human neutrophils [4] = test: ROS production in human neutrophils (L-012 luminescence); assay type: cell-based; conditions: Neutrophil, concentration that enhanced ROS production by 50% above background, read-out: ROS Production AC50, Human PMN
Protocol: J774.A1 macrophages were plated at density of 1.5×10^5 cells/well in wells of 96-well flat-bottom white microtiter plates (Corning Incorporated, Costar). After 16 hr (5% CO2, 37° C.), the media was aspirated, and test compounds or vehicle (final DMSO concentration of 1%) were added in fresh media (DMEM without phenol red, supplemented with 3% (v/v) FBS). After 5 min, the media was replaced by HBSS+ containing 4 μM L-012 and 8 μg/ml HRP, and luminescence was monitored for 120 min (2-min intervals) at 37° C. using a Fluoroscan Ascent FL microtiter plate reader (Thermo Electron, Waltham, Mass.). The curve of light intensity (in relative luminescence units) was plotted against time, and the area under the curve was calculated as total luminescence. The percent activation of ROS was calculated as follows: % activation=(sample-DMSO control)/DMSO control×100. The minimal compound concentration that enhanced ROS production by 50% above background control cells (AC50) was determined by graphing the % activation of ROS vs. log [test compound]. Each curve was determined using five to seven compound concentrations. Human neutrophils were plated at density of 5×10^5 cells/well in wells of 96-well flatbottom white microtiter plates, and compounds under investigation or vehicle (final DMSO concentration of 1%) were added. After 5 min, the media was replaced by HBSS+ containing […] L-012, and luminescence was monitored for 120 min (2-min intervals) at 37° C. using a Fluoroscan Ascent FL microtiter plate reader. The results were analysed as described above to determine % activation and AC50 values.

J774.A1 macrophages [5] = test: TNF-α production in J774.A1 macrophages (ELISA); assay type: cell-based, murine; conditions: for fold induction at 50 µM: Mus musculus, J774.A1, 24 h; for Determined class of macrophage TNF-α inducing activity: experimentally determined class
human neutrophils [6] = test: Ca2+ mobilization in human neutrophils (FLIPR Calcium 3); conditions: Neutrophil
J774.A1 macrophages [7] = test: ROS production in J774.A1 macrophages (L-012 luminescence); assay type: cell-based; conditions: Mus musculus, concentration that enhanced ROS production by 50% above background, read-out: ROS Production AC50, Murine Mφ
Protocol: (§3) Murine macrophage J774.A1 cells were cultured in DMEM supplemented with 10% (v/v) heat-inactivated fetal bovine serum (FBS), 10 mM HEPES, 100 μg/ml streptomycin, and 100 U/ml penicillin. Cells were grown to confluence in sterile tissue culture flasks and gently detached by scraping. Human monocyte/macrophage MonoMac6 cells (DSMZ, Germany) were cultured in RPMI 1640 supplemented with 10% (v/v) FBS, 10 μg/ml bovine insulin, 100 μg/ml streptomycin, and 100 U/ml penicillin. Rat basophilic leukemia (RBL-2H3) cells transfected with human FPR (RBL-FPR) or FPRL1 (RBL-FPRL1) were cultured in DMEM supplemented with 20% (v/v) FBS, 10 mM HEPES, 100 μg/ml streptomycin, and 100 U/ml penicillin, as described previously (Nanamori et al., 2004). Human monocytic THP-1 cells were cultured in RPMI 1640 medium supplemented with 10% (v/v) FBS, 100 μg/ml streptomycin, and 100 U/ml penicillin. All cell cultures were grown at 37° C. in a humidified atmosphere containing 5% CO2. Cell number and viability were assessed microscopically using trypan blue exclusion.
J774.A1 macrophages were plated at density of 1.5×10^5 cells/well in wells of 96-well flat-bottom white microtiter plates (Corning Incorporated, Costar). […] After 5 min, the media was replaced by HBSS+ containing 4 μM L-012 and 8 μg/ml HRP, and luminescence was monitored for 120 min (2-min intervals) at 37° C. using a Fluoroscan Ascent FL microtiter plate reader (Thermo Electron, Waltham, Mass.). The curve of light intensity (in relative luminescence units) was plotted against time, and the area under the curve was calculated as total luminescence. The percent activation of ROS was calculated as follows: % activation=(sample-DMSO control)/DMSO control×100. The minimal compound concentration that enhanced ROS production by 50% above background control cells (AC50) was determined by graphing the % activation of ROS vs. log [test compound]. Each curve was determined using five to seven compound concentrations. […] The results were analysed as described above to determine % activation and AC50 values.

murine neutrophils = test: Chemotaxis assay, murine neutrophils; assay type: cell-based; conditions: percent of response induced by 50 nM KC
J774.A1 macrophages [8] = test: cells; conditions: Mus musculus, J774.A1, read-out: Ca2+ Mobilization EC50, Murine Mφ
[9] = system: human monocytic cells THP-1; test: TNF-α production in THP-1 cells (ELISA); assay type: cell-based; conditions: 24 hr, various concentrations
Protocol: as §3, with “All cell cultures were grown at 37° C. in a humidified atmosphere containing 5% CO2.” left out
as §1

[10] = system: murine peritoneal macrophages; test: TNF-α production in murine peritoneal macrophages (ELISA); assay type: cell-based; conditions: 24 hr, various concentrations
Protocol: Bone marrow leukocytes were flushed from tibias and femurs of BALB/c mice with HBSS− supplemented with 0.1% BSA and 1% glucose and the neutrophils were purified on Percoll density gradients, as previously described (Schepetkin et al., 2007). Peritoneal macrophages were isolated from BALB/c mice 4 days after intraperitoneal injection of 1 ml saline containing 100 μg concanavalin A, as described previously (Schepetkin et al., 2005). Peritoneal exudate cells were suspended in RPMI 1640 containing 10% (v/v) FBS with antibiotics (penicillin and streptomycin) and incubated at 37° C. in 100 mm tissue culture dishes for 1 h. Adherent peritoneal macrophages were harvested and cultured with the compounds under investigation for 24 hr at 37° C. and 5% CO2.
as §1

J774.A1 macrophages [11] = test: IL-6 production in J774.A1 macrophages (ELISA); assay type: cell-based, murine; conditions: J774.A1, 24 hr
Protocol: as §1, §2

J774.A1 cells = test: Cytotoxicity assay (CellTiter-Glo); assay type: cell-based, murine; conditions: J774.A1, 24 hr
Protocol: Cytotoxicity was analyzed with a CellTiter-Glo Luminescent Cell Viability Assay Kit (Promega, Inc., Madison, Wis.), according to the manufacturer's protocol. Briefly, J774.A1 cells were cultured at a density of 3×10^4 cells/well with the test compounds for 24 hr at 37° C. and 5% CO2, substrate was added, and luminescence signal in the samples was analyzed with a Fluoroscan Ascent FL.

[12] = relative fold of activation compared to vehicle (DMSO) control for 50 μM compound, N.A. = no activity was observed, read-out: TNF-α production

Row | Structure (SMILES) | EC50 (human neutrophils [6]; read-out: [Ca2+]i EC50) [µM] | fold induction at 50 µM (J774.A1 macrophages [5]; [12]) | further results
1 | O=C(N/N=C/c1ccc(-c2cccc(Br)c2)o1)c1cccnc1 [Compound 1] | 0.3 | 40 to 50 | TNF-α production in MonoMac6 cells [1]: induced TNF-α production in a concentration-dependent manner; TNF-α production in human monocyte-derived macrophages [2]: induced TNF-α production in a concentration-dependent manner; EC50 (FPRL1): 19.1 µM; Chemotaxis (%), Human PMN (human neutrophils [3]): 67.8 ± 9.4%; AC50 (human neutrophils [4]): 0.2 ± 0.02 µM; fold induction at 50 µM (J774.A1 macrophages [5]; 50 μM compound, above response to vehicle (DMSO) control, Table 5 numbering, N.A. = inactive, read-out: FI (fold-increase of macrophage TNF-α production)): 50; Determined class of macrophage TNF-α inducing activity (J774.A1 macrophages [5]): Active; Effect of Boc-2 (FPR/FPRL1 antagonist) on compound-induced TNF-α production (J774.A1 macrophages [5]; pretreated 5 min with Boc 2 (40 μM), then 50 μM compound 24 hr): inhibited; Effect of WRW4 (FPRL1 antagonist) on compound-induced TNF-α production (J774.A1 macrophages [5]; pretreated 5 min with WRW4 (10 μM), then 50 μM compound 24 hr): inhibited; Effect of PTX on induced TNF-α production (J774.A1 macrophages [5]; pretreated 30 min with PTX (0.4 and 1 μg/ml), then Compound 50 μM or LPS 50 ng/ml for 12 hr): significantly inhibited; Effect of ActD or CHX on compound-induced TNF-α production (J774.A1 macrophages [5]; pretreated with ActD 1 μg/ml or CHX 5 μg/ml 30 min, then 50 μM compound 12 hr): completely inhibited; EC50 (human neutrophils [6]; read-out: Ca2+ Mobilization EC50, Human PMN): 0.3 ± 0.2 µM; AC50 (J774.A1 macrophages [7]): 25.4 ± 4 µM; Chemotaxis (%), Murine PMN (murine neutrophils): 68.9 ± 7.8%; EC50 (J774.A1 macrophages [8]): 24.1 ± 4.1 µM; TNF-α production in THP-1 cells [9]: induced TNF-α production in a concentration-dependent manner; TNF-α production in murine peritoneal macrophages [10]: induced TNF-α production in a concentration-dependent manner; IL-6 production (J774.A1 macrophages [11]): induced secretion of IL-6; Effect on cell viability (J774.A1 cells): had no effect on cell viability
2 | O=C(N/N=C/c1ccc(-c2ccc([N+](=O)[O-])cc2Cl)o1)c1ccc2c(c1)OCO2 [Compound 3] | 0.3 | 30 to 40 | –
3 | CN(C)c1ccc(/C=N\NC(=O)c2ccc([N+](=O)[O-])cc2)cc1 [Compound 4] | 9 | 20 to 25 | –
4 | O=C(N/N=C/c1ccc(-c2cccc(Cl)c2Cl)o1)c1ccccc1 [Compound 5] | 2.3 | 7 to 10 | –
5 | O=C(N/N=C/c1ccc(-c2cc(Cl)ccc2Cl)o1)c1ccc([N+](=O)[O-])cc1 [Compound 7] | 10 | < 5 | –
6 | O=C(N/N=C/c1ccc(-c2ccc(Cl)c(Cl)c2)o1)c1ccc2c(c1)OCO2 [Compound 8] | 11.9 | < 5 | –
7 | Cc1ccc(C(=O)N/N=C/c2ccc(-c3cccc(C(F)(F)F)c3)o2)cn1 [Compound 9] | 15.8 | < 5 | TNF-α production, primary screening of agonists AG 1-26 (J774.A1 macrophages [5]; murine J774.A1 macrophages): induced modest levels of TNF-α production
8 | Cc1ccc(C(=O)N/N=C/c2ccc(-c3cc(Cl)c(Cl)cc3Cl)o2)cn1 [Compound 10] | 32 | < 5 | –
9 | O=C(N/N=C1\C(=O)N(CCc2ccccc2)c2ccccc21)c1ccc2c(c1)OCO2 [Compound 17] | 8.9 | < 2 | –
10 | CCOc1cc(/C=N\NC(=O)c2ccc3c(c2)OCO3)cc(Br)c1O [Compound 18] | 12.2 | < 2 | –
11 | C[C@H](CCC(=O)O)C[C@H](C)C[C@H](C)C(=O)/C=C(\O)[C@H](C)C[C@H](C)C/C=C/[C@@H](C)[C@@H](O)[C@@H](C)[C@@H](O)C[C@@H]1CC[C@@](C)([C@H]2CC[C@@](C)([C@@H](C)O)O2)O1 [ionomycin, reference compound] | – | – | EC50 (J774.A1 macrophages [8]): 0.58 ± 0.3 µM

Second part, led by results:

Row | EC50 (human neutrophils [6]; read-out: [Ca2+]i EC50) [µM] | Structure (SMILES) | fold induction at 50 µM (J774.A1 macrophages [5]; [12]) | further results
12 | 14.5 | CN(C)c1ccc(/C=N\NC(=O)c2ccccc2)cc1 [Compound 19] | < 2 | –
13 | 18.9 | O=C(N/N=C/c1cc(Br)cc(Br)c1OC(=O)c1cccc(F)c1)c1ccc2c(c1)OCO2 [Compound 20] | < 2 | –
14 | 21.9 | CCOc1cc(/C=N/NC(=O)c2ccc3c(c2)OCCO3)cc(Br)c1O [Compound 21] | < 2 | –
15 | 22.7 | O=C(N/N=C/c1ccco1)c1ccc(Br)cc1O [Compound 35] | – | –
16 | 25.5 | Cc1ccc(C(=O)N/N=C/c2ccc(C)o2)cc1 [Compound 36] | – | –
17 | 26.8 | O=C(N/N=C/c1c(O)ccc2ccccc12)c1ccc2c(c1)OCO2 [Compound 37] | – | –
18 | 28.1 | COc1ccc(/C=N/NC(=O)c2ccc3c(c2)OCO3)c(OC)c1 [Compound 38] | – | –
19 | 28.4 | O=C(N/N=C/c1ccco1)c1ccccc1 [Compound 39] | – | Determined class of macrophage TNF-α inducing activity (J774.A1 macrophages [5]): NA (inactive derivatives were placed in the nonactive group labeled “NA”)

From US20100035932A1, “NOVEL FORMYL PEPTIDE RECEPTOR LIKE 1 AGONISTS THAT INDUCE MACROPHAGE TUMOR NECROSIS FACTOR ALPHA AND COMPUTATIONAL STRUCTURE-ACTIVITY RELATIONSHIP ANALYSIS OF THEREOF” (priority 2008, published 2010)
